Assay results as given in patent US5656721A, “Peptide derivatives” (Sandoz Ltd., priority 1986, dated 1997).
Read-outs that look alike come from different tables or passages of the source. Starred links: 1 amine or outer side, 2 acyl side, 3 side chain; linkers in the order of their positions; H or OH if unused. Positions of bridges follow the written chain, without caps; N, C: chain ends. Non-standard residues stand in square brackets, D forms with d. Residues, ends and D or L forms follow the SMILES beside them. X1 = O=C([C@@H](Cc1ccccc1)N(C[C@@]1(O)OC[C@@H](O)[C@@H](O[C@H]2O[C@H](CO)[C@@H](O)[C@H](O)[C@H]2O)[C@@H]1O)[*:1])[*:2]; X3 = O=C([C@@H](Cc1ccccc1)N(C[C@@]1(O)OC[C@@H](O)[C@@H](O)[C@@H]1O)[*:1])[*:2]; X2 = O=C([C@H](CS[*:3])N(C[C@@]1(O)OC[C@@H](O)[C@@H](O)[C@@H]1O)[*:1])[*:2]; Thr(ol) = C[C@@H](O)[C@H](N)CO

Assays:
GH level in the serum [1] = type: in vivo, rats
Experimental: Male rats are decapitated and blood is collected 1 hour after administering the GH secrection inhibiting compound in several logarithmically spaced doses. The GH level in the serum is determined means of RIA. In this test, these compounds of the invention are active at doses from about 0.02 to about 30 microgram/kg s.c.

[2] = Absorption on oral administration, plasma levels by RIA; type: in vivo, OFA rats; details: OFA, rat, 10 mg/kg; for level at 0.25 h: 15 mins., read-out: Rat plasma levels following oral administration, 15 mins.; for level at 0.5 h: 30 mins., read-out: Rat plasma levels following oral administration, 30 mins.; for level at 1 h: 60 mins., read-out: Rat plasma levels following oral administration, 60 mins.
Experimental: Improved absorption on oral administration may be detected for the compounds of the invention as follows:
The compound of the invention and the unmodified analogue are administered orally to OFA rats (e.g. 10 mg/kg). After definite periods of time, e.g. 15, 30 and 60 minutes, blood samples are collected, These are analysed for their drug content by e.g. RIA.

[3] = test system: calcium level in the blood; experiment: Hypocalcemic activity, calcium level in the blood after i.v. administration; type: in vivo; details: dogs, 5 μg/kg
Excerpt: The sugar derivatives of calcitonin and of calcitonin analogues or derivatives according to the invention, more especially the derivatives of formula X reduce the calcium plasma level. Moreover, they are functional antagonists of the parathormone, and effect a positive calcium balance in the bones. The hypocalcemic activity of the new compounds may be measured in known manner, e.g. according to the method of M. Azria et al., reported in the Calcitonin 1984 Symposium, 24th October, Milan and published as "Short Communication" in "Current Clinical Practice Series" No. 42, Excerpta Medica 1986, page 104. In this method, a Ca^2+ -ion selective electrode is used, so that the content of calcium ions in the blood of young rabbits or dogs may be continuously measured. The compounds are administered i.v. at a dosage of from about 0.1 to about 10 micrograms/kg, e.g. conforming to ca. 1 international unit per kg. […]
It has for example been determined that each of the compounds of examples 37 and 38 have a duration of action that is much longer than with the unmodified peptide, when administered i.v. to dogs (5 μg/kg).

[4] = Bioavailability test, oral or intravenous administration, blood detection by radioimmunoassay; type: in vivo, dogs
Excerpt: The compounds of the invention may be compared with the unmodified peptides in standard bioavailability tests.
The compounds of the invention, for example, may be detected in the blood plasma for a longer period after administration than the unmodified peptides, as indicated in standard bioavailability experiments.
The compounds of the invention and the unmodified peptide may be administered to for example dogs in a single dose sufficient to produce a therapeutic effect by oral or intravenous administration.
Doses used are those which permit the peptide or a metabolite thereof to be detected in the blood. Detection may be effected in conventional manner, e.g. by radioimmunoassay.

[5] = test system: GH (growth hormone) secretion; experiment: GH concentration in blood of fasted rhesus monkeys after p.o. administration; type: in vivo; details: for duration of GH lowering effect: p.o., example 2 at 0.1 mg/kg, lowering by at least 50 per cent
Experimental: Compounds of the invention which inhibit GH (growth hormone) secretion, especially the compounds of formula VIII, and more especially compounds of formula VIII a to f, and reduce the GH concentrations in the blood, may be tested as follows: Fasted rhesus monkeys (at least 5 monkeys) in primate chairs receive the compound of the invention in a piece of banana as vehicle. The compounds are administered at a dose of from about 0.1 mg/kg to about 10 mg/kg p.o. Blood is taken from the […] via a catheter. The GH concentration in the blood is measured by RIA (radio immunoassay).

[6] = Elimination through bile and urine in anaesthetized cannulated rats after s.c. administration; details: male, rat, in vivo, sc, 10 microgram/kg
Experimental: Additionally the compounds of the invention advantageously are eliminated to a greater extent through the kidneys. This may be observed in standard tests.
Fasted Male rats (225-375 g) are administered orally with water (50 ml/kg). After 30 minutes the animals are anaesthetized with e.g. Inactin (100 mg/kg i.p.). The bile duct and bladder are cannulated. Both V. jugularis are exposed. In one vein an infusion of glucose 5% with ethanol 1% is administered (5 ml/hr) to stimulate diuresis. The other vein is used to take blood samples (0.5 ml) every hour over 4 hours.
The compound of the invention and the unmodified peptide is administered s.c. at a dose of from about 10 to about 1000 microgram/Kg. The concentration of the compound is determined in conventional manner e.g. by RIA.
In the above test for example the following results have been obtained with the example 2 compound and octreotide at a dose of 10 microgram/kg: […]

gastric acid secretion = experiment: Gastric acid secretion in fasted rats with stomach fistula; type: in vivo; details: for duration of increased stomach pH / pH of the stomach juice reached: by stomach tube
Experimental: The activity of these compounds is observed in e.g. the following test: GH secretion inhibiting compounds of the invention are administered to fasted rats with fistula implanted in their stomach in doses from about 0.05 mg/kg to about 5 mg/kg by stomach tune. After 1 hour the fistula is opened. The stomach Juice is collected in 30 minute periods. The collected volumes are registered and the acid concentration determined.

GH level in the serum [7] = experiment: GH-reducing activity in male rats having oestradiol implants; type: in vivo; details: oestradiol-implanted male rats
Experimental: The GH-reducing activity of these compounds is also observed after oral application to male rats having oestradiol implants. In this test there are relatively small variations in the GH level, The test is carried out as follows:
A loop (length 50 mm .0. 3 mm) of silastic with 50 mg of oestradiol is implanted under ether anaesthesis under the dorsal skin of male rats which have a weight of ca. 300 g. At various times (1 to 6 months later), these animals are used repeatedly for tests. The test substance is administered either s.c. or orally.
Directly before, as well as at various times after administration of the substance, ca. 0.8 ml of blood is removed from the retro-orbital plexus. It is centrifuged and the GH level in the serum is determined by RIA.

[8] = s.c., male rats, 1 hour after administration

Compound: C[C@@H](O)[C@@H]1NC(=O)[C@H](CCCCN)NC(=O)[C@@H](Cc2c[nH]c3ccccc23)NC(=O)[C@H](Cc2ccccc2)NC(=O)[C@@H](NC(=O)[C@@H](Cc2ccccc2)NC(=O)[C@H]2OC(O)[C@H](O)[C@@H](O)[C@@H]2O)CSSC[C@@H](C(=O)N[C@H](CO)[C@@H](C)O)NC1=O (stereo partly shown) [Example 21]
- ID50 (amount required to lower the GH content by 50%) (GH level in the serum [1]; rat, in vivo, sc): 0.3 microgram/kg

Compound: CC[C@H](C)[C@@H]1NC(=O)[C@H](Cc2ccc(O)cc2)NC(=O)[C@@H](NC[C@@]2(O)OC[C@@H](O)[C@@H](O)[C@@H]2O)CSSC[C@@H](C(=O)N2CCC[C@H]2C(=O)N[C@@H](CC(C)C)C(=O)NCC(N)=O)NC(=O)[C@H](CC(N)=O)NC(=O)[C@H](CCC(N)=O)NC1=O [Example 44, [N-deoxy-fructosyl-Cys^1]-oxytocin] (H-[X2]YIQNCPLG-NH2; disulfide 1-6; C-terminus assumed)
- level at 0.25 h [2]: 11.8 ng/mL
- level at 0.5 h [2]: 6.98 ng/mL
- level at 1 h [2]: 3.98 ng/mL

Compound: C[C@@H](O)[C@@H]1NC(=O)[C@H](CCCCN)NC(=O)[C@@H](Cc2c[nH]c3ccccc23)NC(=O)[C@H](Cc2ccccc2)NC(=O)[C@@H](NC(=O)[C@@H](Cc2ccccc2)NC[C@@]2(O)OC[C@@H](O)[C@@H](O)[C@@H]2O)CSSC[C@@H](C(=O)N[C@H](CO)[C@@H](C)O)NC1=O [Example 1] (H-[X3]CF[dW]KTC[Thr(ol)]; disulfide 2-7)
- ID50 (amount required to lower the GH content by 50%) (GH level in the serum [1]; rat, in vivo, sc): 0.045 microgram/kg

Compound: C[C@H](N)C(=O)NCC(=O)N[C@H]1CSSC[C@@H](C(=O)O)NC(=O)[C@H](CO)NC(=O)[C@H]([C@@H](C)O)NC(=O)[C@H](Cc2ccccc2)NC(=O)[C@H]([C@@H](C)O)NC(=O)[C@H](CCCCN)NC(=O)[C@H](Cc2c[nH]c3ccccc23)NC(=O)[C@H](Cc2ccccc2)NC(=O)[C@H](Cc2ccccc2)NC(=O)[C@H](CC(N)=O)NC(=O)[C@H](CCCCN)NC1=O [natural stomatostatin, reference compound]
- ID50 (amount required to lower the GH content by 50%) (GH level in the serum [1]; [8]): 93 microgram/kg

Compound: CC[C@H](C)[C@@H]1NC(=O)[C@H](Cc2ccc(O)cc2)NC(=O)[C@@H](N)CSSC[C@@H](C(=O)N2CCC[C@H]2C(=O)N[C@@H](CC(C)C)C(=O)NCC(N)=O)NC(=O)[C@H](CC(N)=O)NC(=O)[C@H](CCC(N)=O)NC1=O [oxytocin, reference compound]
- level at 0.25 h [2]: 7.53 ng/mL
- level at 0.5 h [2]: 3.6 ng/mL
- level at 1 h [2]: 2.55 ng/mL

Compound: N^α -isocaproyl-des(1-4)-[Ala^7,Nε-(1-deoxyfructosyl)-Lys^11,1 8 ]salmon Calcitonin [Example 37]
- duration of action compared with the unmodified peptide [3]: much longer
- reduction in the calcium level in the blood after 6 hours [3]: still as pronounced as after 3 hours

Compound: N^α -isocaproyl-des-(1-4)-[Ala^7, N^κ -(α-D-glucosyl-(1-4)-deoxyfructosyl)-Lys^11,18 ]salmon Calcitonin [Example 38]
- duration of action compared with the unmodified peptide [3]: much longer
- reduction in the calcium level in the blood after 6 hours [3]: still as pronounced as after 3 hours

Compound: C[C@@H](O)[C@@H]1NC(=O)[C@H](CCCCN)NC(=O)[C@@H](Cc2c[nH]c3ccccc23)NC(=O)[C@H](Cc2ccccc2)NC(=O)[C@@H](NC(=O)[C@@H](Cc2ccccc2)NC[C@@]2(O)OC[C@@H](O)[C@@H](O[C@H]3O[C@H](CO)[C@@H](O)[C@H](O)[C@H]3O)[C@@H]2O)CSSC[C@@H](C(=O)N[C@H](CO)[C@@H](C)O)NC1=O [Example 2, N^α -[α-glucosyl(1-4)-dioxyfructosyl)-SMS] (H-[X1]CF[dW]KTC[Thr(ol)]; disulfide 2-7)
- elimination half-life ([4]; intravenous administration): about 2,3 hours
- blood concentration on oral administration compared with octreotide ([4]; oral administration, relative to octreotide): ten fold higher
- absolute bioavailability on the basis of the AUC, relative to octreotide ([4]; orally and intravenously administered, relative to octreotide): 5 times
- lowering of GH secretion ([5]; 0.1 mg/kg p.o.): at least 50 per cent
- duration of GH lowering effect [5]: > 10 h
- ID50 (amount required to lower the GH content by 50%) (GH level in the serum [1]; [8]): 0.190 microgram/kg
- dose excreted ([6]; Percentage eliminated through Bile): 1.6%
- dose excreted ([6]; Percentage eliminated through Urine): 36%
- duration of increased stomach pH (gastric acid secretion): 3,5 hours
- pH of the stomach juice reached (gastric acid secretion): 6-8 pH
- activity relative to cimetidine (gastric acid secretion; compared with cimetidine): at least 60 times

Compound: C[C@@H](O)[C@@H]1NC(=O)[C@H](CCCCN)NC(=O)[C@@H](Cc2c[nH]c3ccccc23)NC(=O)[C@H](Cc2ccccc2)NC(=O)[C@@H](NC(=O)[C@H](N)Cc2ccccc2)CSSC[C@@H](C(=O)N[C@H](CO)[C@@H](C)O)NC1=O [Octreotide, reference compound]
- half-life ([4]; dog, blood, intravenous administration, read-out: elimination half-life (converted)): ~30 min
- duration of GH lowering effect [5]: 5 h
- ID50 p.o. (GH level in the serum [7]): 1400 microgram/kg
- dose excreted ([6]; rats, 10 microgram/kg s.c., read-out: Percentage eliminated through Bile): 22%
- dose excreted ([6]; rats, 10 microgram/kg s.c., read-out: Percentage eliminated through Urine): 19%
- duration of increased stomach pH (gastric acid secretion): 2 hours
- pH of the stomach juice reached (gastric acid secretion): 6-7 pH
